Assay results: ChEMBL document CHEMBL1201862, “PubChem BioAssay data set” (2004)
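Grown in 96-well plates, cells were treated for 48 hours with each compound at five concentrations. Insufficient inhibition: endpoint recorded as highest concentration tested. GI50: concentration for 50% inhibition of growth.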 Calls of active or inactive are those of the source. No stated cut-off is given here; in the data, active = GI50 up to about 1.1 µM and inactive = higher.

Assays:
Assay in all cases: DTP human tumour cell line panel, 48 h
[1] = system: HOP-62
[2] = system: TK-10
[3] = system: Malme-3M
[4] = system: U-251
[5] = system: Hs-578T
[6] = system: SNB-75
[7] = system: HT-29
[8] = system: HOP-92
[9] = system: HCT-116
[10] = system: OVCAR-3
[11] = system: UACC-62
[12] = system: HCC 2998
[13] = system: HCT-15
[14] = system: A549
[15] = system: COLO 205
[16] = system: M14
[17] = system: ACHN
[18] = system: SF-268
[19] = system: MDA-MB-435
[20] = system: NCI-H226

CC(C)(C)c1ccc(O)c(CN(Cc2cc(C(C)(C)C)ccc2O)C2CCCCC2)c1
GI50 [1]: 18.5 µM (inactive)
GI50 [2]: 17.7 µM (inactive)
GI50 [3]: 15.8 µM (inactive)
GI50 [4]: 16.5 µM (inactive)
GI50 [5]: 22.6 µM (inactive)
GI50 [6]: 23.3 µM (inactive)
GI50 [7]: 16.1 µM (inactive)
GI50 [8]: 16 µM (inactive)
GI50 [9]: 16.2 µM (inactive)
GI50 [10]: 18.2 µM (inactive)
GI50 [11]: 15.7 µM (inactive)
GI50 [12]: 2.01 µM (inactive)
GI50 [13]: 20.7 µM
GI50 [14]: 16.2 µM (inactive)
GI50 [15]: 2.2 µM (inactive)
GI50 [16]: 13.6 µM (inactive)
GI50 [17]: 20 µM (inactive)
GI50 [18]: 15.7 µM (inactive)
GI50 [19]: 14.5 µM (inactive)

CCCCCCCCCCCCN1[C@H]2CCC[C@H]2C(O)[C@@H]2CCC[C@@H]21 (some centres undefined)
GI50 [1]: > 100 µM (inactive)
GI50 [4]: 77.4 µM (inactive)
GI50 [5]: > 100 µM (inactive)
GI50 [6]: > 100 µM (inactive)
GI50 [7]: > 100 µM (inactive)
GI50 [8]: > 100 µM (inactive)
GI50 [9]: 53.8 µM (inactive)
GI50 [10]: > 100 µM (inactive)
GI50 [11]: > 100 µM (inactive)
GI50 [12]: > 100 µM (inactive)
GI50 [13]: 56.4 µM
GI50 [14]: > 100 µM (inactive)
GI50 [15]: > 100 µM (inactive)
GI50 [16]: > 100 µM (inactive)
GI50 [20]: 96.6 µM (inactive)
GI50 [17]: > 100 µM (inactive)
GI50 [18]: > 100 µM (inactive)
GI50 [19]: > 100 µM (inactive)

CC12CCC([C@H](C(O)C3CCCCC3)C1=O)C2(C)C (some centres undefined)
GI50 [1]: > 100 µM (inactive)
GI50 [2]: > 100 µM (inactive)
GI50 [4]: > 100 µM (inactive)
GI50 [5]: > 100 µM (inactive)
GI50 [6]: > 100 µM (inactive)
GI50 [8]: > 100 µM (inactive)
GI50 [9]: > 100 µM (inactive)
GI50 [10]: > 100 µM (inactive)
GI50 [11]: > 100 µM (inactive)
GI50 [12]: > 100 µM (inactive)
GI50 [13]: > 100 µM
GI50 [15]: > 100 µM (inactive)
GI50 [16]: > 100 µM (inactive)
GI50 [20]: > 100 µM (inactive)
GI50 [17]: > 100 µM (inactive)
GI50 [18]: > 100 µM (inactive)
GI50 [19]: > 100 µM (inactive)

CC1(C)CC(=O)C(=CN2C(=O)CNC2=S)C(=O)C1
GI50 [1]: > 100 µM (inactive)
GI50 [2]: > 100 µM (inactive)
GI50 [4]: > 100 µM (inactive)
GI50 [5]: > 100 µM (inactive)
GI50 [6]: > 100 µM (inactive)
GI50 [8]: > 100 µM (inactive)
GI50 [9]: > 100 µM (inactive)
GI50 [10]: > 100 µM (inactive)
GI50 [11]: > 100 µM (inactive)
GI50 [12]: > 100 µM (inactive)
GI50 [13]: > 100 µM
GI50 [14]: > 100 µM (inactive)
GI50 [15]: > 100 µM (inactive)
GI50 [16]: > 100 µM (inactive)
GI50 [20]: > 100 µM (inactive)
GI50 [17]: > 100 µM (inactive)
GI50 [18]: > 100 µM (inactive)
GI50 [19]: > 100 µM (inactive)

COC(=O)[C@]12C3=C(O)C(=O)C[C@H]1OC[C@H]2C=CC3
GI50 [1]: > 100 µM (inactive)
GI50 [2]: > 100 µM (inactive)
GI50 [3]: > 100 µM (inactive)
GI50 [4]: > 100 µM (inactive)
GI50 [5]: > 100 µM (inactive)
GI50 [6]: > 100 µM (inactive)
GI50 [8]: > 100 µM (inactive)
GI50 [9]: > 10 µM (inactive)
GI50 [10]: > 100 µM (inactive)
GI50 [11]: > 100 µM (inactive)
GI50 [12]: > 100 µM (inactive)
GI50 [13]: > 100 µM
GI50 [14]: > 100 µM (inactive)
GI50 [15]: > 100 µM (inactive)
GI50 [16]: > 100 µM (inactive)
GI50 [17]: > 100 µM (inactive)
GI50 [18]: > 100 µM (inactive)
GI50 [19]: > 100 µM (inactive)

N#C[C@H]1Nc2ccccc2[C@@H](O)C1O (some centres undefined)
GI50 [1]: > 100 µM (inactive)
GI50 [2]: > 100 µM (inactive)
GI50 [3]: > 100 µM (inactive)
GI50 [4]: > 100 µM (inactive)
GI50 [5]: > 100 µM (inactive)
GI50 [6]: > 100 µM (inactive)
GI50 [7]: > 100 µM (inactive)
GI50 [8]: > 100 µM (inactive)
GI50 [9]: > 100 µM (inactive)
GI50 [10]: > 100 µM (inactive)
GI50 [11]: > 100 µM (inactive)
GI50 [12]: > 100 µM (inactive)
GI50 [13]: > 100 µM
GI50 [14]: > 100 µM (inactive)
GI50 [15]: > 100 µM (inactive)
GI50 [16]: > 100 µM (inactive)
GI50 [17]: > 100 µM (inactive)
GI50 [18]: > 100 µM (inactive)
GI50 [19]: > 100 µM (inactive)
